One data set concerns uninfected MT4 cells. The data set is classed as cell-based. The following applies: n=4 duplicate determinations, read-out: LC50 (the source's name). An excerpt: (§1) The anti-HIV activity of the compound of the invention can be determined in MT4 cells according to the following procedure. MT4 cells were infected with cell-free supernatant of HIVIIIB (previously frozen with known 50% tissue culture infectious dose (TCID50) at 0.003 multiplicity of infection (MOI) for one hour. After one hour infection, cells were washed twice to remove residual viruses, resuspended in culture media and seeded into 96-well tissue culture plates at 1×10^4 cells per well with various half-log dilutions of compounds. Uninfected cells are included as toxicity and cell controls. RPMI 1640 media (Gibco) with 10% fetal bovine serum were used as culture media. Various concentrations of human serum (Sigma) 50%, 25% and 12.5% were added to culture media resulting in final concentration of 60%, 35% and 22.5% total serum. All assay plates were incubated in 37 deg. cent. incubator for 5 days. MTT (sigma, 5 mg/ml stock in PBS) was added to all wells at 25 ul per well, incubate for 4 hours. 20% SDS with 0.02 N HCI in water was added at 50 ul per well to lyse cells. Plates incubated overnight for complete lyses were read on a microtitre plate reader at 570/650 nm wavelengths to determine cell optical density (O.D.). Raw data were analysed for percent inhibition by the following formula: O.D. test well−O.D. virus control×100 O.D. cell control−O.D. virus control The 50% effective concentration (EC50) was calculated by the median effect equation (Chou, 1975, Proc. Int. Cong. Pharmacol. 6th p. 619) to determine the efficacy of compound. The 50% lethal concentration (LC50) was calculated using uninfected MT4 cells.
(§2) Under these conditions, the following data were obtained (n=4 duplicate determinations: […]

Another data set deals with HIVIIIB. Kind of data set: Anti-HIV activity in MT4 cells infected with HIVIIIB (MTT readout). Particulars: 0% plasma, 5 days, n=4 duplicate determinations. The data set is classed as cell-based.
Excerpt: as §1, §2

The target in the next data set is HIV protease (Human immunodeficiency virus type 1 group M subtype B, UniProt P04585). Kind of data set: Fluorogenic assay for screening inhibitors of HIV protease. In kind it is biochemical. As to the method: Fluorogenic Assay for Screening Inhibitors of HIV Protease
The inhibitory potency of the compound of the invention can be determined by the following method.
The compound of the invention is dissolved in DMSO and a small aliquot further diluted with DMSO to 100 times the final concentration desired for testing. The reaction is carried out in a 6×50 mm tube in a total volume of 300 microliters. The final concentrations of the components in the reaction buffer are: 125 mM sodium acetate, 1 M sodium chloride, 5 mM dithiothreitol, 0.5 mg/ml bovine serum albumin, 1.3 μM fluorogenic substrate, 2% (v/v) dimethylsulfoxide, pH 4.5. After addition of inhibitor, the reaction mixture is placed in the fluorometer cell holder and incubated at 30° C. for several minutes. The reaction is initiated by the addition of a small aliquot of cold HIV protease. The fluorescence intensity (excitation 340 nm, emmision 490 nM) is recorded as a function of time. The reaction rate is determined for the first six to eight minutes. The observed rate is directly proportional to the moles of substrate cleaved-per unit time. The percent inhibition is 100×(1−(rate in presence of inhibitor)/(rate in absence of inhibitor)).
Fluorogenic substrate: Dabcyl-Gaba-Ser-Gln-Asn-Tyr-Pro-lle-Val-Gln-EDANS wherein DABCYL=4-(4-dimethylamino-phenyl)azobenzoic acid, Gaba=γ-aminobutyric acid, and EDANS=5-((2-aminoethyl)amino)-naphthalene-1-sulfonic acid.

Setting [1] is: Inhibitor Concentration 0.5 nanomolar.

Structures are written as SMILES.

With `Cc1ccnc(C)c1OCC(=O)N[C@@H](Cc1ccccc1)[C@@H](O)C[C@H](Cc1ccccc1)NC(=O)[C@H](C(C)C)N1CCNC1=O` [Example 15, (2S,3S,5S)-2-(2,4-Dimethyl-pyridin-3-oxy-acetyl)amino-3-hydroxy-5-(2S-(1-imidazolidin-2-onyl)-3-methyl-butanoyl)amino-1,6-diphenylhexane], the CC50 in the data set on uninfected MT4 cells is > 100 µM. Also, the IC50 (in general, the concentration that inhibits the measured activity by half) in the data set with HIVIIIB is 0.119 µM. Besides, the “Percent Inhibition” value on HIV protease (setting [1]) was 48%.
Turning to `Cc1cccc(C)c1/C=C/C(=O)N[C@@H](Cc1ccccc1)[C@@H](O)C[C@H](Cc1ccccc1)NC(=O)[C@H](C(C)C)N1CCCNC1=O` (relative stereo) [Example 19E], the CC50 in the data set on uninfected MT4 cells turned out to be 17.9 µM. Also, in the data set on HIVIIIB, the IC50 is 0.395 µM. The “Percent Inhibition” value on HIV protease (setting [1]) is listed as 68.5%.
As to `Cc1cccc(C)c1OCC(=O)N[C@@H](Cc1ccccc1)[C@@H](O)C[C@H](Cc1ccccc1)NC(=O)[C@H](C(C)C)N1CCC(=O)NC1=O` [Example 25E, (2S,3S,5S)-2-(2,6-Dimethylphenoxyacetyl)amino-3-hydroxy-5-[2S-(1-tetrahydro-pyrimid-2,4-dionyl)-3-methylbutanoyl]amino-1,6-diphenylhexane], the CC50 with uninfected MT4 cells came to 22.9 µM. The same compound gave an IC50 in the data set on HIVIIIB of 0.012 µM. Besides, the “Percent Inhibition” value at HIV protease (setting [1]) came out at 100%.
As for `Cc1ncnc(C)c1OCC(=O)N[C@@H](Cc1ccccc1)[C@@H](O)C[C@H](Cc1ccccc1)NC(=O)[C@H](C(C)C)N1CCNC1=O` [Example 13B, (2S,3S,5S)-2-(4,6-Dimethylpyrimidin-5-oxy-acetyl)amino-3-hydroxy-5-(2S-(1-imidazolidin-2-onyl)-3-methyl-butanoyl)amino-1,6-diphenylhexane], the “Percent Inhibition” value on HIV protease (Inhibitor Concentration 1.0 nanomolar) is recorded as 56.2%.
As to `Cc1cccc(C)c1CCC(=O)N[C@@H](Cc1ccccc1)[C@@H](O)C[C@H](Cc1ccccc1)NC(=O)[C@H](C(C)C)N1CCCNC1=O` [Example 20D, (2S,3S,5S)-2-(3-(2,6-Dimethylphenyl)propanoyl)amino-3-hydroxy-5-(2S-(1-tetrahydropyrimidin-2-onyl)-3-methyl-butanoyl)amino-1,6-diphenylhexane], the CC50 with uninfected MT4 cells worked out at 24.1 µM. Besides, the IC50 in the data set with HIVIIIB turned out to be 0.283 µM.
In the case of `Cc1cccc(C)c1OCC(=O)N[C@@H](Cc1ccccc1)[C@@H](O)C[C@H](Cc1ccccc1)NC(=O)[C@H](C(C)C)N1CCNC1=O` [Example 1P, (2S,3S,5S)-2-(2,6-dimethylphenoxyacetyl)amino-3-hydroxy-5-[2S-(1-imidazolidin-2-onyl)-3-methyl-butanoyl]amino-1,6-diphenylhexane], in the data set with uninfected MT4 cells, the CC50 was determined as 41.3 µM. This compound also showed an IC50 with HIVIIIB of 0.01 µM. Also, the “Percent Inhibition” value on HIV protease (setting [1]) was determined as 92.6%.
For the compound `CC(C)[C@@H](C(=O)N[C@@H](Cc1ccccc1)C[C@H](O)[C@H](Cc1ccccc1)NC(=O)O[C@H]1CO[C@H]2OCC[C@H]21)N1CCN(C)C1=O` [Example 4F, (2S,3S,5S)-2-[(3R, 3aS, 6aR)-Bis-tetrahydrofuranyloxy]amino-3-hydroxy-5-[2S-(3-methyl-1-imidazolidin-2-onyl)-3-methylbutanoyl]amino-1,6-diphenylhexane], in the data set on uninfected MT4 cells, the CC50 is > 100 µM. In the data set with HIVIIIB, this compound showed an IC50 of 0.101 µM. For the same compound, on HIV protease (setting [1]), the “Percent Inhibition” value amounted to 49.7%.
For the compound `Cc1ccnc(C)c1OCC(=O)N[C@@H](Cc1ccccc1)[C@@H](O)C[C@H](Cc1ccccc1)NC(=O)[C@@H](N1CCNC1=O)C(C)(C)C` [Example 14D, (2S,3S,5S)-2-(2,4-Dimethyl-pyridin-3-oxy-acetyl)amino-3-hydroxy-5-(2S-(1-imidazolidin-2-onyl)-3,3-dimethylbutanoyl)amino-1,6-diphenylhexane], the CC50 in the data set with uninfected MT4 cells was > 100 µM. Also, the 50% inhibitory concentration (IC50) with HIVIIIB was determined as 0.053 µM. In addition, the “Percent Inhibition” value on HIV protease (setting [1]) was 52.7%.
For the compound `CC(C)(C)[C@@H](C(=O)N[C@@H](Cc1ccccc1)C[C@H](O)[C@H](Cc1ccccc1)NC(=O)OCc1cncs1)N1CCNC1=O` [Example 7B, (2S,3S,5S)-2-(N-((5-Thiazolyl)-methoxycarbonyl)amino)-3-hydroxy-5-(2S-(1-imidazolidin-2-onyl)-3,3-dimethylbutanoyl)amino-1,6-diphenylhexane], the CC50 in the data set with uninfected MT4 cells is > 100 µM. Further, the IC50 with HIVIIIB turned out to be 0.204 µM. Further, the “Percent Inhibition” value at HIV protease (setting [1]) is given as 67.1%.
As to `CC(C)[C@@H](C(=O)N[C@@H](Cc1ccccc1)C[C@H](O)[C@H](Cc1ccccc1)NC(=O)OCc1cncs1)N1CCNC1=O` [Example 6F, (2S,3S,5S)-2-(N-((5-Thiazolyl)methoxycarbonyl)amino)-5-((2S-(1-imidazolidin-2-onyl)-3-methyl-butanoyl)-amino)-3-hydroxy-1,6-diphenylhexane], the CC50 in the data set on uninfected MT4 cells was > 100 µM. The compound also came in with an IC50 in the data set on HIVIIIB of 0.193 µM. In addition, at HIV protease (setting [1]), the “Percent Inhibition” value amounted to 61.4%.
For the compound `Cc1cccc(C)c1OCC(=O)N[C@@H](Cc1ccccc1)[C@@H](O)C[C@H](Cc1ccccc1)NC(=O)[C@H](C(C)C)N1CCCC1=O` [Example 17C, (2S,3S,5S)-2-(2,6-Dimethylphenoxyacetyl)amino-3-hydroxy-5-(2S-(1-pyrrolidin-2-onyl)-3-methyl-butanoyl)amino-1,6-diphenylhexane], the CC50 in the data set with uninfected MT4 cells came to 19 µM. The same compound came in with an IC50 in the data set with HIVIIIB of 0.051 µM. Further, at HIV protease (setting [1]), the “Percent Inhibition” value is on record as 87.2%.
Turning to `Cc1cccc(C)c1OCC(=O)N[C@@H](Cc1ccccc1)[C@@H](O)C[C@H](NC(=O)[C@H](C(C)C)N1CCC(=O)NC1=O)C(C)C` [Example 28, (2S,3S,5S)-2-(2,6-Dimethylphenoxyacetyl)amino-3-hydroxy-5-[2S-(1-tetrahydro-pyrimid-2,4-dionyl)-3-methylbutanoyl]amino-1-phenyl-6-methylheptane], the CC50 with uninfected MT4 cells came out at 72.2 µM. For the same compound, the IC50 in the data set with HIVIIIB came out at 0.011 µM. Moreover, the “Percent Inhibition” value at HIV protease (setting [1]) stood at 86.6%.
Take `Cc1cccc(C)c1OCC(=O)N[C@@H](Cc1ccccc1)[C@@H](O)C[C@H](Cc1ccccc1)NC(=O)[C@H](C(C)C)N1CC=NNC1=O` [Example 30B, (2S,3S,5S)-2-(2,6-Dimethylphenoxyacetyl)amino-3-hydroxy-5[2S-(4-aza-4,5-dehydro-1-pyrimid-2-onyl)-3-methyl-butanoyl]amino-1,6-diphenylhexane]: in the data set on uninfected MT4 cells, the CC50 turned out to be 18 µM. In addition, in the data set with HIVIIIB, the concentration for half-maximal inhibition (IC50) was determined as 0.003 µM. For the same compound, the “Percent Inhibition” value at HIV protease (setting [1]) is recorded as 91.0%.
Turning to `Cc1cc(C)c(OCC(=O)N[C@@H](Cc2ccccc2)[C@@H](O)C[C@H](Cc2ccccc2)NC(=O)[C@H](C(C)C)N2CCNC2=O)c(C)c1` [Example 11B, (2S,3S,5S)-2-(2,4,6-Trimethylphenoxyacetyl)amino-3-hydroxy-5-(2S-(1-imidazolidin-2-onyl)-3-methylbutanoyl)amino-1,6-diphenylhexane], the CC50 in the data set with uninfected MT4 cells amounted to 18.2 µM. Also, the half-inhibitory concentration (IC50) in the data set with HIVIIIB came out at 0.19 µM. Further, at HIV protease (setting [1]), the “Percent Inhibition” value was found to be 91.1%.
Consider `Cc1cccc(C)c1OCC(=O)N[C@@H](Cc1ccccc1)[C@@H](O)C[C@H](Cc1ccccc1)NC(=O)[C@H](C(C)C)N1C(=O)CCC1=O` [Example 18C, (2S,3S,5S)-2-(2,6-Dimethylphenoxyacetyl)amino-3-hydroxy-5-(2S-(1-pyrrolidin-2,5-dionyl)-3-methyl-butanoyl)amino-1,6-diphenylhexane], for which the CC50 in the data set on uninfected MT4 cells amounted to 19.1 µM. Besides, the IC50 with HIVIIIB worked out at 0.329 µM. Besides, on HIV protease (setting [1]), the “Percent Inhibition” value was 57.8%.
Take `Cc1cccc(C)c1OCC(=O)N[C@@H](Cc1ccccc1)[C@@H](O)C[C@H](Cc1ccccc1)NC(=O)[C@H](C(C)C)N1CCC(=O)NC1=O` [Example 23C, (2S,3S,5S)-2-(2,6-Dimethylphenoxyacetyl)amino-3-hydroxy-5-(2S-(1-dihydropyrimid-2,4-dionyl)-3-methyl-butanoyl)amino-1,6-diphenylhexane]: the “Percent Inhibition” value on HIV protease (setting [1]) is recorded as 86.0%.
Turning to `CC(C)[C@@H](C(=O)N[C@@H](Cc1ccccc1)C[C@H](O)[C@H](Cc1ccccc1)NC(=O)O[C@@H]1CCS(=O)(=O)[C@@H]1C(C)C)N1CCCNC1=O` (racemic) [Example 22E, (2S,3S,5S)-2-(cis(±)-1,1-Dioxo-2-isopropyl-3-tetrahydrothiophenoxy)amino-3-hydroxy-5-(2S-(1-tetrahydropyrimid-2-onyl)-3-methylbutanoyl)amino-1,6-diphenylhexane], the “Percent Inhibition” value at HIV protease (setting [1]) is reported as 71.8%.
